# From patent publication US4275065A, “Modulating the immune response with 2-substituted-3-hydroxythiazolo[2,3-b]b e” (American Home Products Corporation, priority 1980, dated 1981)
# What was measured:
# [1] = test system: antibody-secreting plaque-forming splenocytes (IgG and IgM); experiment: Cunningham modification of the Jerne assay (hemolytic plaque technique), IgM and IgG plaques per spleen; format: in vivo, CDF1 (Balb/c × DBA/2) mice; conditions: 100 mg/kg
# Experimental: In this example, the compounds of the invention are tested for their effect on antibody-secreting plaque-forming splenocytes (IgG and IgM) in the Cunningham modification of the Jerne assay. This technique is able to detect, in a quantitative manner, antibody producing cells in response to antigen stimulus in the host mouse. For study of […] immune response, sheep erythrocytes (SRBC) are used (as in the present Example), while for humoral immune response, SRBC coupled with pneumococcal polysaccharide is used.
# CDF1 (Balb/c × DBA/2) mice are immunized with 0.1 ml. of 10^8 sheep erythrocytes (SRBC) intraperitonially 4-5 days before the assay. The mice are separated into groups, with one group serving as a control and all other groups receiving compounds of the invention. The treated mice are dosed with drug on day one. […] The spleens of the sacrificed mice are excised and washed several times in RPMI 1640 with 10% fetal bovine serum. 100 λ of spleen cells are mixed with a drop of guinea pig complement, four drops of RPMI 1640 and a drop of 25% SRBC in a microtiter plate well and then pipetted into a Cunningham chamber. On day four, for IgM determinations, the chambers are incubated for 30 minutes at 37° C. Antibody, released by the small proportion of active cells, attaches to the surrounding erythrocytes which are lysed by complement leaving a small plaque up to 0.5 mm. in diameter. Since only cells releasing IgM antibody form plaques directly, a "developing" serum must be added to be able to form and view IgG plaques. Thus fifth or sixth day cultured spleen cells are further treated with rabbit antimouse IgG and then incubated for 45 minutes. Both IgM and IgG plaques are counted under a stereomicroscope.
# In Table 1 are given the IgM and IgG plaque counts per spleen for mice treated with 6-chloro-2-phenylthiazolo[2,3-b]benzothiazol-3(2H)-one mesoionic didehydro derivative and for the controls:
# The assay is repeated using the following compounds of the invention: 2-phenylthiazolo[2,3-b]benzothiazol-3(2H)-one mesoionic didehydro derivative (A), 6-chloro-2-(p-chlorophenyl)-thiazolo[2,3-b]benzothiazol-3(2H)-one mesoionic didehydro derivative (B) and 6-chloro-2-phenylthiazolo[2,3-b]benzothiazol-3(2H)-one mesoionic didehydro derivative (C).
# [2] = test system: established adjuvant arthritis (left paw edema); experiment: established adjuvant arthritis, therapeutic peroral administration; format: in vivo, male Lewis strain rats; conditions: therapeutic p.o., * = p < 0.05
# [3] = test system: delayed hypersensitivity reaction; experiment: guinea pig delayed hypersensitivity assay (PPD); format: in vivo, Male Hartley strain guinea pigs; conditions: 50 mg/kg orally, read 24 hours after challenge, * = p < 0.05
# [4] = test system: murine Lewis lung carcinoma; experiment: metastatic spread of murine Lewis lung carcinoma implanted subcutaneously; format: in vivo
# Experimental: The ability of the compounds of the invention to influence the growth and metastatic spread of murine Lewis lung carcinoma implanted subcutaneously,is evaluated.
# The procedures employed for stock tumor maintenance and transfer, as well as for drug evaluation on the primary tumor, are those found in Cancer Chemotherapy Reports, Vol. 3, No. 2, September 1972, Protocol 1.400. The measurements of metastic spread are made by counting tumor foci on the excised lung under an illuminated magnifying lens or a dissecting microscope, after employment of the Wexler india ink technique (Hilda Wexler, "Accurate Identification of Experimental Pulmonary Metastases", J. Nat. Can. Inst., Volume 36, No. 4, April 1966, pp. 641-643) to accurately identify and count lung metasteses.
# [5] = test system: autoimmune disease (systemic lupus erythematosus); experiment: autoimmune disease (systemic lupus erythematosus), immunoglobulin determinations, male NZB/W mice; format: in vivo, male NZB/W F1 mice; conditions: A 100 mg/kg, levamisole 25 mg/kg, i.p. twice weekly
# Experimental: (§1) The effect of the compounds of the invention on the development and progress of autoimmune disease (systemic lupus erythematosus) in the New Zealand F1 hydrid mouse (NZB×NZW) is evaluated. NZB/W F1 mice are divided into two groups according to sex. […] IgG, IgM and antinuclear antibody determinations are made on pooled samples of serum obtained by capillary bleedings of the suborbital sinus at approximately monthly intervals. The compounds of the invention are suspended in a solution of physiological saline with 0.16% CMC. All dosing is twice weekly intraperitonially. […] Immunoglobulin values from serum samples are compared with the baseline (pretreatment) for each group.
# [6] = test system: thymus gland; experiment: effect on the thymus gland (thymus weight); format: in vivo, BDF1 mice
# Experimental: The effect of the compounds of the invention on the thymus gland is measured. BDF1 mice of 18-20 gms. weight are dosed at 150 mg/kg. with 6-chloro-2-phenylthiazolo[2,3-b]benzothiazolo-3(2H)-one mesoionic didehydro derivative for eight consecutive days. The mice are sacrificed on the ninth day, the thymus glands excised and weighed. The excised thymus glands averaged […]. as compared to […]. for the control group. […] The weight loss is also correlated to dose, and the results are as follows:
# Using the same technique, the following compounds of the invention were tested: 6-chloro-2-(p-chlorophenyl)thiazolo[2,3-b]benzothiazol-3(2H)-one mesoionic didehydro derivative (A), 2-phenyl-5,6,7,8-tetrahydrothiazolo[2,3-b]benzothiazol-3(2H)-one mesoionic didehydro derivative (B), 2-phenylthiazolo[2,3-b]-benzothiazol-3(2H)-one mesoionic didehydro derivative (C),6-chloro-2-trifluoroacetylthiazolo[2,3-b]benzothiazol-3(2H)-one mesoionic didehydro derivative (D), 6-chloro-3-hydroxy-2-phenylthiazolo[2,3-b]benzothiazolium bromide (E), 7-ethoxy-3-hydroxy-2-phenylthiazolo[2,3-b]benzothiazolium bromide (F), 3-hydroxy-2-phenylthiazolo[2,3-b]benzothiazolium bromide (G), and 3-hydroxy-2-phenyl-5,6,7,8-tetrahydrothiazolo[2,3-b]benzothiazolium bromide (H).
# [7] = test system: autoimmune disease (systemic lupus erythematosus); experiment: autoimmune disease (systemic lupus erythematosus), immunoglobulin determinations, female NZB/W mice; format: in vivo, female NZB/W F1 mice; conditions: A 100 mg/kg, levamisole 25 mg/kg, i.p. twice weekly
# Experimental: as §1
# [8] = test system: adjuvant arthritis (left paw edema); experiment: adjuvant arthritis test, prophylactic peroral administration; format: in vivo, male Lewis strain rats; conditions: prophylactic p.o.
# [9] = 150 mg/kg, eight days, in words
smiles,measurement,setting,value
"[O-]c1c(-c2ccccc2)sc2sc3ccc(Cl)cc3[n+]12 [Example 3, 6-Chloro-2-phenylthiazolo[2,3-b]benzothiazol-3(2H)-one mesoionic didehydro derivative]","IgG plaques, mean (total number of plaques per spleen)",[1]; Day 4,"37,087 plaques per spleen"
same,"IgM plaques, mean (total number of plaques per spleen)",[1]; Day 4,"63,993 plaques per spleen"
same,"IgG plaques, mean (total number of plaques per spleen)",[1]; Day 6,"152,745 plaques per spleen"
same,"IgM plaques, mean (total number of plaques per spleen)",[1]; Day 6,"39,679 plaques per spleen"
same,Mean % Inhibition of Left Paw Edema,"[2]; 4th day of dosing, 12.5 mg/kg",94%
same,Mean % Inhibition of Left Paw Edema,"[2]; 4th day of dosing, 50 mg/kg",67%
same,Mean % Inhibition of Left Paw Edema,"[2]; 7th day of dosing, 12.5 mg/kg",66%
same,Mean % Inhibition of Left Paw Edema,"[2]; 7th day of dosing, 50 mg/kg",58%
same,Mean % Inhibition of Paw Edema,[3]; 6 hours after challenge,41%
same,Mean % Inhibition of Paw Edema,[3]; 24 hours before challenge,43%
same,Average Number of Metastases,[4]; 25 mg/kg,10.8
same,Average Number of Metastases,[4]; 50 mg/kg,15.3
same,Average Number of Metastases,[4]; 100 mg/kg,38.4
same,Average Number of Metastases,[4]; 150 mg/kg,81.3
same,Average Number of Metastases,[4]; 300 mg/kg,99.1
same,"ANA (antinuclear antibody), Highest Dilution Positive",[5]; 47 Days,neg.
same,IgG level,[5]; 47 Days,234 mg./100 ml.
same,IgM level,[5]; 47 Days,48 mg./100 ml.
same,"ANA (antinuclear antibody), Highest Dilution Positive",[5]; 76 Days,neg.
same,IgG level,[5]; 76 Days,240 mg./100 ml.
same,IgM level,[5]; 76 Days,49 mg./100 ml.
same,"ANA (antinuclear antibody), Highest Dilution Positive",[5]; 111 Days,neg.
same,IgG level,[5]; 111 Days,240 mg./100 ml.
same,IgM level,[5]; 111 Days,80 mg./100 ml.
same,"ANA (antinuclear antibody), Highest Dilution Positive",[5]; 154 Days,neg.
same,IgG level,[5]; 154 Days,324 mg./100 ml.
same,IgM level,[5]; 154 Days,96 mg./100 ml.
same,IgG Total Change From Baseline,[5],-126 mg./100 ml.
same,IgM Total Change From Baseline,[5],+52.5 mg./100 ml.
same,IgG level,[5]; Pretreatment,450 mg./100 ml.
same,IgM level,[5]; Pretreatment,43.5 mg./100 ml.
same,Thymus weight,[6]; 12.5 mg/kg,55.3 mg
same,Thymus weight,[6]; 50 mg/kg,46 mg
same,Thymus weight,[6]; 100 mg/kg,11.8 mg
same,Thymus weight,"[6]; 150 mg/kg, eight consecutive days, ninth day",21.8 mg
same,Histopathological examination of the treated thymus glands,[6]; [9],weight loss to be due solely to the depletion of lymphocytes
same,"size of the cervical, axillary, trachial and inguinal lymph nodes",[6]; [9],some reduction in the size
same,Thymus weight,[6]; 200 mg/kg,20.5 mg
same,recovery of thymus weight and histopathological status,"[6]; after resting for three weeks, in words",return to normal weight and histopathological status
same,"ANA (antinuclear antibody), Highest Dilution Positive",[7]; 47 Days,neg.
same,IgG level,[7]; 47 Days,234 mg./100 ml.
same,IgM level,[7]; 47 Days,49 mg./100 ml.
same,"ANA (antinuclear antibody), Highest Dilution Positive",[7]; 76 Days,neg.
same,IgG level,[7]; 76 Days,220 mg./100 ml.
same,IgM level,[7]; 76 Days,54 mg./100 ml.
same,"ANA (antinuclear antibody), Highest Dilution Positive",[7]; 111 Days,neg.
same,IgG level,[7]; 111 Days,496 mg./100 ml.
same,IgM level,[7]; 111 Days,148 mg./100 ml.
same,"ANA (antinuclear antibody), Highest Dilution Positive",[7]; 154 Days,neg.
same,IgG level,[7]; 154 Days,420 mg./100 ml.
same,IgM level,[7]; 154 Days,108 mg./100 ml.
same,IgG Total Change From Baseline,[7],-40 mg./100 ml.
same,IgM Total Change From Baseline,[7],+44 mg./100 ml.
same,IgG level,[7]; Pretreatment,460 mg./100 ml.
same,IgM level,[7]; Pretreatment,64 mg./100 ml.
same,Mean % Inhibition of Left Paw Edema,[8]; 10 mg/kg,32%
same,Mean % Inhibition of Left Paw Edema,"[8]; 25 mg/kg, * = p < 0.05?",41%
same,Mean % Inhibition of Left Paw Edema,"[8]; 50 mg/kg, * = p < 0.05?",63%
